Values joined by “and” are separate entries in the source; they are usually repeats but may differ in a detail not shown here. Equal values may be shown once. “Also recorded” adds a separate entry of the source. Read-outs that look alike come from different tables or passages of the source.

The source of these data is patent US9474793B2, “Vaccines and methods for prevention and treatment of drug-resistant HIV-1 and hepatitis B virus” (The United States of America, as represented by the …, priority 2005, dated 2016).

Series [1] is classed as physicochemical. The text has this:
CTL peptides of the present invention, including the CTL peptide […] (SEQ ID NO:6; […]. The CTL peptide […] (SEQ ID NO:6; […]. The recommended storage of intact vials of the CTL peptide […] (SEQ ID NO:6; […].
Further, the CTL peptide […]

In series [2] the test system is RT-WT peptide-pulsed C1R.AAD target cells. In words: 51Cr-release cytotoxicity assay: recognition of RT-WT by peptide-specific CTL lines from HHD-transgenic mice. Conditions: FIGS. 3-5; E/T ratio 10:1.
Method: Mice more than eight weeks of age were immunized subcutaneously in the base of the tail with 100 μl of an emulsion containing 1:1 incomplete Freund's adjuvant (IFA) and PBS solution with antigens and cytokines (50 nmol CTL epitope, 50 nmol HBV core 128-140 helper epitope, 5 μg of IL-12 and 5 μg of granulocyte-macrophage colony stimulating factor). Mice were boosted two weeks later. Spleens were removed 10-14 days after the boost. Immune spleen cells (2.5×10^6/well) were stimulated in 24-well plates with autologous spleen cells (5×10^6/well) pulsed for 2 h with 10 μM CTL epitope peptide in CTM supplemented with 10% T-Stim (Collaborative Biochemical Products, Bedford, Mass.). Following more than 4 in vitro stimulations with peptide-pulsed syngeneic spleen cells, CTL lines were maintained by weekly restimulation of 1×10^6 CTL/well with 4×10^6 peptide pulsed irradiated (3,300 rads) gynogeneic spleen cells as feeders, or by weekly stimulation of 1×10^6 CTL/well with 3.8×10^6 peptide pulsed irradiated C57BL/6 spleen cells and 1-3×10^5 peptide pulsed and irradiated (15,000 rad) Jurkat-A2K^b transfectant cells.
(§1) CTL activity was measured using a 4-hr assay with ^51Cr-labeled target cells (Okazaki et al., J Immunol 2003, 171(5):2548-2555). Target cells (10^6) were pulsed in 100 μl of CTM and 150 μCi ^51Cr for 1.5 hr, washed three times, and added at 3,000 cells/well to the 96-well round-bottom plates with different peptide concentrations. Effector cells were introduced 2 h later. Then, the supernatants were harvested and counted following an additional 4-hr incubation. The percentage of specific ^51Cr release was calculated as 100×(experimental release−spontaneous release)/(Maximum release−spontaneous release). Spontaneous release was determined from target cells incubated in the absence of effector cells. Maximum release was determined in the presence of 0.1 M HCl. C1R.AAD cell lines served as target cells.
Series [3] is classed as physicochemical. The note with it: mixed with Montanide ISA-51 (300 μg dose). The text has this: When the CTL peptide […] (SEQ ID NO:6; […]
In series [4] the test system is RT-WT specific CTL lines. As to the kind of experiment: Recognition of RT-variant peptides by RT-WT-specific CTL lines (FIG. 2). The note with it: E/T ratio 10:1.
Method: as §1
Series [5] deals with T1, HLA-A2.1 molecules (Homo sapiens, UniProt P04439, D140Y/D185E/D98H/E176V/E277Q/G131W/G231S/I119V/I121R/I166T/I218V/L300P/L318F/N151K/N90K/P208A/P217A/Q86G/Q94H/R138H/R169H/T345S). Format: binding.
Series [6] addresses T1, HLA-A2.1 molecules. The note with it: Okazaki et al. 2003; cited from earlier work.
Series [7] has as its system HIV. The note with it: patients infected with HIV; cited from earlier work.
The conditions of series [8]: cited from earlier work.

Consider VLYQYVDDV, for which, in series [1], the “freeze-thaw-freeze cycles through which the peptide is stable” value is recorded as “at least two”. For the same substance, the “degradation by HPLC” value in series [1] (1.6 mg/ml, 4° C. and 22° C., by 7 days) is reported as “No degradation”. Further, in series [1] (at the concentrations to be used for vialing), the “loss by adsorption onto the borosilicate glass vial” value is “not significantly lost”. For the same substance, the storage stability in series [1] (controlled room temperature (15° C.-30° C.)) is reported as 3 months; in series [1] (freezer (−10° C. to −25° C. and −70° C.)) it was “at least 18 months”; in series [1] (refrigerator (2° C.-8° C.)), “at least 9 months”. For the same substance, the “Recognition of RT-WT by the peptide-specific CTL line” value in series [2] is given as “to some extent; also recorded: slightly weaker than that of RT-2L9V specific CTL”. The “physical stability of the emulsion” value in series [3] worked out at 3 h.

Regarding “VIYQYMDDL (conserved HLA-A2-restricted cytotoxic T lymphocyte (CTL) epitope in human immunodeficiency virus 1 (HIV-1) drug-sensitive wild-type reverse transcriptase (RT-WT), residues 179-187)”, in series [4], the “Recognition of the peptide by RT-WT-specific CTL” value is recorded as “recognized”.

YLYQYVDDV: the “FI0.5 (concentration required to give an FI of 0.5)” value in series [5] is 0.245 µM and 0.176 to 0.245 µM.

On to VLYQYMDDV [RT-2L9V], for which, in series [6], the “binding ability to HLA-A2 relative to RT-WT” value is on record as “approximately 8 fold”. Also, the “Recognition of RT-WT by the peptide-specific CTL line” value in series [2] is given as “most strongly among all four CTL types”.

For the substance “sargramostim: glycosylated, recombinant human sargramostim; position 23 arginine replaced with leucine, expressed in yeast”, in series [7], the “effect on viral load” value is listed as “slight decrease”, the “impact on the CD4 count” value is given as “little impact” and the safety result is on record as “safe”. In addition, the stability after reconstitution in series [8] (250 μg vial reconstituted with bacteriostatic water for injection, refrigerator) was 20 days. The “stability after initial entry into the vial” value in series [8] (500 μg/ml liquid) is “up to 20 days”.
